Assay results taken from patent publication US20240382483A1, “HETEROCYCLIC EGFR INHIBITORS FOR USE IN THE TREATMENT OF CANCER” (Blueprint Medicines Corporation, priority 2021, published 2024).

Columns and labels:
EGFR (L858R T790M C797S) = target: T1, EGFR (L858R T790M C797S) (Homo sapiens, UniProt P00533, C797S/L858R/T790M); assay: Biochemical EGFR inhibition assay (Caliper mobility shift), EGFR LRTMCS; details: LRTMCS (PH) IC50 (nM) @ 1 mM ATP (Num), EGFR LRTMCS mutant
T1 construct: purchased SignalChem E10-122VG
T1 sequence (P00533 25-1210 T790M/C797S/L858R): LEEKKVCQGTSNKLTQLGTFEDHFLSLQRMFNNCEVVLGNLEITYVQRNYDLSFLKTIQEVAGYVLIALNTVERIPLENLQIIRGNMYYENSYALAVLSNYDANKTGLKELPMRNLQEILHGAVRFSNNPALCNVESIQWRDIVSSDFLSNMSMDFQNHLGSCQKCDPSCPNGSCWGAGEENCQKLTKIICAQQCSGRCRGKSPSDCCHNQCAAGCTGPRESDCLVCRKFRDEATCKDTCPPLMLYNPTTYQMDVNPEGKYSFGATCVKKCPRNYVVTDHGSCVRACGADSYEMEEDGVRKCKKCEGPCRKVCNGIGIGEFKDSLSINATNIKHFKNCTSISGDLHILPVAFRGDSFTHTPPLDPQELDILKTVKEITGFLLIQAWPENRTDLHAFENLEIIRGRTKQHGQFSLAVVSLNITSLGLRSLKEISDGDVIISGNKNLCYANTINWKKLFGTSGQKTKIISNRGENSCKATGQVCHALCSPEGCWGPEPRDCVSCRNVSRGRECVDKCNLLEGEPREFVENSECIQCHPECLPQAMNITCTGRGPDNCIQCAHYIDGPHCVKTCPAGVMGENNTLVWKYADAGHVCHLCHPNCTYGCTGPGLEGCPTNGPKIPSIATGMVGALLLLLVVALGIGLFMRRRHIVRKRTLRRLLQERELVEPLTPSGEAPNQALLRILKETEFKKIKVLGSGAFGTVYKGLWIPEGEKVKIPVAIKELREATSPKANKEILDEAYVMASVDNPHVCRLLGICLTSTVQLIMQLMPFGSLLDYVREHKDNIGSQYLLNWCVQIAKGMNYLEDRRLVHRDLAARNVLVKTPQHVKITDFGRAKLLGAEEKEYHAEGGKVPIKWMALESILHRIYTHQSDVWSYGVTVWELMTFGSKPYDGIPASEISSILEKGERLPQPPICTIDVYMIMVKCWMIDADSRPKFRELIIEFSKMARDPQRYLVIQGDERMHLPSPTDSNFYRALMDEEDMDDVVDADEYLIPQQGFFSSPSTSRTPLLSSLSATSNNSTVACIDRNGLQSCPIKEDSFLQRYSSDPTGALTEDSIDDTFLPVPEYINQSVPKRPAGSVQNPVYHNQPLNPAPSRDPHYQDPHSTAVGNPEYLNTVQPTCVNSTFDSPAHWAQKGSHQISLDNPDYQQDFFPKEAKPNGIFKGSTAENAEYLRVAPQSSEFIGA
Procedure: Reactions proceeded until between 10% to 20% total peptides were phosphorylated at room temperature (25° C.) and were terminated with 35 mM 2,2′,2″,2′″-(ethane-1,2-diyldinitrilo)tetraacetic acid (EDTA). Product was detected using the Caliper mobility shift detection method where the phosphorylated peptide (product) and substrate were electrophoretically separated and measured. Percent activity was plotted against log concentration of compound and points to generate an apparent IC50.

[1] = target: T2, intracellular phosphorylation of EGFR in NCI-H1975 cell line that harbors the EGFR L858R T790M mutations (Homo sapiens, UniProt P00533, L858R/T790M); assay: NCI-H1975 pEGFR AlphaLISA assay; assay type: cell-based; details: NCI-H1975 cells (EGFR L858R T790M), p-EGFR (Tyr1068), 4-5 hours incubation; read-out: Ext pEGFR H1975 GMean IC50 (nM) Protocol: @Pharmaron AlphaLISA (Num)
T2 construct: NCI-H1975 cell line that harbors the EGFR L858R T790M mutations (ATCC, CRL-5908); host or cells: NCI-H1975
T2 sequence (P00533 25-1210 T790M/L858R): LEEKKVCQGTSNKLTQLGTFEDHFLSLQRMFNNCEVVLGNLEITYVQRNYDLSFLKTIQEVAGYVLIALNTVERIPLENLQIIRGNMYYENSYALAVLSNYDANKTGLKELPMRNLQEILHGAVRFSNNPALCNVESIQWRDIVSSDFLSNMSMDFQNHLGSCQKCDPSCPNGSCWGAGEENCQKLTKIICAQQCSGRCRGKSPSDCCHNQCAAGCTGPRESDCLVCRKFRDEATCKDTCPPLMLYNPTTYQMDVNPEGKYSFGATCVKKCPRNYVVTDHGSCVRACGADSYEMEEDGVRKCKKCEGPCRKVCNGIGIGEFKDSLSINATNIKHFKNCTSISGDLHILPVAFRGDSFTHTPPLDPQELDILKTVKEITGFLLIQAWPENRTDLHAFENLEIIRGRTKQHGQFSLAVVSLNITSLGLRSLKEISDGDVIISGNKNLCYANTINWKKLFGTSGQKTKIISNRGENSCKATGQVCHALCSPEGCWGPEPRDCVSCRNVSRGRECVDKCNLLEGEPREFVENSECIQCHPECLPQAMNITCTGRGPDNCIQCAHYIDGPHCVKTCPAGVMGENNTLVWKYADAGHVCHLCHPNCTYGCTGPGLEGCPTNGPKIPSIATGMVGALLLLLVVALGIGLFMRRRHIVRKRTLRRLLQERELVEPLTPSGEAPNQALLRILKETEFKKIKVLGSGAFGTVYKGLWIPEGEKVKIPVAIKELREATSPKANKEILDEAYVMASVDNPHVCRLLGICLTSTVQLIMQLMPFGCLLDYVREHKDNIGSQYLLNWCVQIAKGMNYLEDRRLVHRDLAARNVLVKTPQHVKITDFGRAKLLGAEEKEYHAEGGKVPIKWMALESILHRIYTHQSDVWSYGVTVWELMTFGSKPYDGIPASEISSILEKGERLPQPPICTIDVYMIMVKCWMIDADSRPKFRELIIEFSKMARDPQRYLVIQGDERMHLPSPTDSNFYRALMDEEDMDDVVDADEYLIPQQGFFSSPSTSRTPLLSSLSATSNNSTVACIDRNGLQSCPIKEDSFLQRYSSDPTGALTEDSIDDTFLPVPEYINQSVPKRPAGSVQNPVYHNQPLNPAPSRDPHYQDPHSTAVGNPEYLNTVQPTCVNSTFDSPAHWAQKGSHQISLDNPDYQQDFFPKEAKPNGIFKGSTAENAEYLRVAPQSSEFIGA
Procedure: On the next day, the test compounds and DMSO control were added into H1975 cell plate followed by incubation at 37C/5% CO2 for 4-5 hours. […] Then 5 μL of a donor bead mix was added to each well followed by overnight incubation at room temperature in dark. On the next day, the plate was read at a compatible plate reader to obtain pEGFR signal. Percent of pEGFR inhibition was plotted against log concentration of compounds to generate IC50 values.

| IC50 (EGFR (L858R T790M C797S)) [nM] | IC50 [1] [nM] | SMILES |
| --- | --- | --- |
| < 15 | 10 to 20 | Cc1c(-c2ncc(C(C)C)c3cc(Nc4ccnc(N5CC[C@@H](O)[C@@](C)(F)C5)n4)ncc23)nnn1C [Example 17, (3S,4R)-1-(4-((8-(1,5-dimethyl-1H-1,2,3-triazol-4-yl)-5-isopropyl-2,7-naphthyridin-3-yl)amino)pyrimidin-2-yl)-3-fluoro-3-methylpiperidin-4-ol] |
| < 15 | 20 to 30 | CC(C)c1cnc(N2C[C@H](O)[C@H]2C)c2cnc(Nc3ccnc(N4C[C@@H](F)[C@@H](O)C(C)(C)C4)n3)cc12 (single isomer, unassigned) [Example 145, (4S,5R)-5-fluoro-1-(4-((8-((2R,3S)-3-hydroxy-2-methylazetidin-1-yl)-5-isopropyl-2,7-naphthyridin-3-yl)amino)pyrimidin-2-yl)-3,3-dimethylpiperidin-4-ol or (4R,5S)-5-fluoro-1-(4-((8-((2R,3S)-3-hydroxy-2-methylazetidin-1-yl)-5-isopropyl-2,7-naphthyridin-3-yl)amino)pyrimidin-2-yl)-3,3-dimethylpiperidin-4-ol] |
| 15 to 20 | 10 to 20 | CC(C)c1cnc(N2CC[C@H](S(C)(=O)=O)C2)c2cnc(Nc3ccnc(N4CC[C@@H](O)[C@@](C)(F)C4)n3)cc12 [Example 75, (3S,4R)-3-fluoro-1-(4-((5-isopropyl-8-((S)-3-(methylsulfonyl)pyrrolidin-1-yl)-2,7-naphthyridin-3-yl)amino)pyrimidin-2-yl)-3-methylpiperidin-4-ol] |
| < 15 | > 50 | CC(C)c1cnc(N2C[C@H](O)[C@H]2C)c2cnc(Nc3ccnc(N4CCC(C)(O)CC4)n3)cc12 [Example 128, 1-(4-((8-((2R,3S)-3-hydroxy-2-methylazetidin-1-yl)-5-isopropyl-2,7-naphthyridin-3-yl)amino)pyrimidin-2-yl)-4-methylpiperidin-4-ol] |
| 20 to 30 | > 50 | Cc1nc(-c2cnc(C(C)C)c3cc(Nc4ccnc(N5CC[C@@H](O)[C@@](C)(F)C5)n4)ncc23)no1 [Example 8, (3S,4R)-3-fluoro-1-(4-((5-isopropyl-8-(5-methyl-1,2,4-oxadiazol-3-yl)-2,6-naphthyridin-3-yl)amino)pyrimidin-2-yl)-3-methylpiperidin-4-ol] |
| < 15 | 20 to 30 | CO[C@H]1CCN(c2nccc(Nc3cc4c(C(C)C)cnc(N5CC[C@H]5CN)c4cn3)n2)C[C@H]1F [Example 165, 8-((S)-2-(aminomethyl)azetidin-1-yl)-N-(2-((3R,4S)-3-fluoro-4-methoxypiperidin-1-yl)pyrimidin-4-yl)-5-isopropyl-2,7-naphthyridin-3-amine] |
| < 15 | 20 to 30 | CC(C)c1cnc(N2C[C@H](O)[C@H]2C)c2cnc(Nc3ccnc(N4CC[C@](C)(O)[C@](C)(F)C4)n3)cc12 (single isomer, unassigned) [Example 170, (3R,4S)-3-fluoro-1-(4-((8-((2R,3S)-3-hydroxy-2-methylazetidin-1-yl)-5-isopropyl-2,7-naphthyridin-3-yl)amino)pyrimidin-2-yl)-3,4-dimethylpiperidin-4-ol or (3S,4R)-3-fluoro-1-(4-((8-((2R,3S)-3-hydroxy-2-methylazetidin-1-yl)-5-isopropyl-2,7-naphthyridin-3-yl)amino)pyrimidin-2-yl)-3,4-dimethylpiperidin-4-ol] |
| < 15 | 10 to 20 | CC(C)c1cnc(N2CC(C(F)F)C2)c2cnc(Nc3ccnc(N4CC[C@@H](O)[C@@](C)(F)C4)n3)cc12 [Example 55, (3S,4R)-1-(4-((8-(3-(difluoromethyl)azetidin-1-yl)-5-isopropyl-2,7-naphthyridin-3-yl)amino)pyrimidin-2-yl)-3-fluoro-3-methylpiperidin-4-ol] |
| 15 to 20 | 30 to 50 | COC(=O)N1CC2(CCN2c2ncc(C(C)C)c3cc(Nc4ccnc(N5CC[C@@H](O)[C@@](C)(F)C5)n4)ncc23)C1 [Example 82, methyl 1-(6-((2-((3S,4R)-3-fluoro-4-hydroxy-3-methylpiperidin-1-yl)pyrimidin-4-yl)amino)-4-isopropyl-2,7-naphthyridin-1-yl)-1,6-diazaspiro[3.3]heptane-6-carboxylate] |
| < 15 | > 50 | CC(C)c1ncc(-c2cnn(C)c2)c2cnc(Nc3ccnc(N4CC[C@@H](O)[C@@](C)(F)C4)n3)cc12 [Example 14, (3S,4R)-3-fluoro-1-(4-((5-isopropyl-8-(1-methyl-1H-pyrazol-4-yl)-2,6-naphthyridin-3-yl)amino)pyrimidin-2-yl)-3-methylpiperidin-4-ol] |
| 30 to 100 | > 50 | CCOc1cnc(N2CC[C@@H]2C)c2cnc(Nc3ccnc(N4CC[C@@H](O)[C@@](C)(F)C4)n3)cc12 (single isomer, unassigned) [Example 182, (3S,4R)-1-(4-((5-ethoxy-8-((S)-2-methylazetidin-1-yl)-2,7-naphthyridin-3-yl)amino)pyrimidin-2-yl)-3-fluoro-3-methylpiperidin-4-ol or (3S,4R)-1-(4-((5-ethoxy-8-((R)-2-methylazetidin-1-yl)-2,7-naphthyridin-3-yl)amino)pyrimidin-2-yl)-3-fluoro-3-methylpiperidin-4-ol] |
| < 15 | < 10 | C[C@H](CC#N)c1cnc(N2CC[C@H]2C)c2cnc(Nc3ccnc(N4CC[C@@H](O)[C@@](C)(F)C4)n3)cc12 (single isomer, unassigned) [Example 36, (R)-3-(6-((2-((3S,4R)-3-fluoro-4-hydroxy-3-methylpiperidin-1-yl)pyrimidin-4-yl)amino)-1-((R)-2-methylazetidin-1-yl)-2,7-naphthyridin-4-yl)butanenitrile or (S)-3-(6-((2-((3S,4R)-3-fluoro-4-hydroxy-3-methylpiperidin-1-yl)pyrimidin-4-yl)amino)-1-((R)-2-methylazetidin-1-yl)-2,7-naphthyridin-4-yl)butanenitrile] |
| < 15 | 30 to 50 | CC(C)c1cnc(N2CC(CO)C2)c2cnc(Nc3ccnc(N4CC[C@@H](O)[C@@](C)(F)C4)n3)cc12 [Example 61, (3S,4R)-3-fluoro-1-(4-((8-(3-(hydroxymethyl)azetidin-1-yl)-5-isopropyl-2,7-naphthyridin-3-yl)amino)pyrimidin-2-yl)-3-methylpiperidin-4-ol] |
| < 15 | 30 to 50 | CC(C)c1cnc(-c2cnn(C)c2)c2cnc(Nc3ccnc(N4CC[C@@H](O)[C@@](C)(F)C4)n3)cc12 [Example 9, (3S,4R)-3-fluoro-1-(4-((5-isopropyl-8-(1-methyl-1H-pyrazol-4-yl)-2,7-naphthyridin-3-yl)amino)pyrimidin-2-yl)-3-methylpiperidin-4-ol] |
| < 15 | 30 to 50 | CC(C)c1cnc(N2Cc3cnn(C)c3C2)c2cnc(Nc3ccnc(N4CC[C@@H](O)[C@@](C)(F)C4)n3)cc12 [Example 90, (3S,4R)-3-fluoro-1-(4-((5-isopropyl-8-(1-methyl-4,6-dihydropyrrolo[3,4-c]pyrazol-5(1H)-yl)-2,7-naphthyridin-3-yl)amino)pyrimidin-2-yl)-3-methylpiperidin-4-ol] |
| 15 to 20 | > 50 | CC(C)c1cnc(N2CC(O)C2)c2cnc(Nc3ccnc(N4CCC5(CCO5)CC4)n3)cc12 [Example 117, 1-(6-((2-(1-oxa-7-azaspiro[3.5]nonan-7-yl)pyrimidin-4-yl)amino)-4-isopropyl-2,7-naphthyridin-1-yl)azetidin-3-ol] |
| 15 to 20 | > 50 | CC(C)c1cnc(N2CC[C@H](O)[C@H]2C)c2cnc(Nc3ccnc(N4CC[C@@H](O)[C@@](C)(F)C4)n3)cc12 [Example 81, (3S,4R)-3-fluoro-1-(4-((8-((2R,3S)-3-hydroxy-2-methylpyrrolidin-1-yl)-5-isopropyl-2,7-naphthyridin-3-yl)amino)pyrimidin-2-yl)-3-methylpiperidin-4-ol] |
| < 15 | 10 to 20 | CC(C)c1cnc(N2C[C@H](O)[C@H]2C)c2cnc(Nc3ccnc(N4C[C@@H](F)[C@@H](O)[C@@](C)(F)C4)n3)cc12 (single isomer, unassigned) [Example 133, (3S,4R,5R)-3,5-difluoro-1-(4-((8-((2R,3S)-3-hydroxy-2-methylazetidin-1-yl)-5-isopropyl-2,7-naphthyridin-3-yl)amino)pyrimidin-2-yl)-3-methylpiperidin-4-ol or (3R,4S,5S)-3,5-difluoro-1-(4-((8-((2R,3S)-3-hydroxy-2-methylazetidin-1-yl)-5-isopropyl-2,7-naphthyridin-3-yl)amino)pyrimidin-2-yl)-3-methylpiperidin-4-ol] |
| < 15 | 20 to 30 | CNC(=O)CC1CN(c2ncc(C(C)C)c3cc(Nc4ccnc(N5CC[C@@H](O)[C@@](C)(F)C5)n4)ncc23)C1 [Example 87, 2-(1-(6-((2-((3S,4R)-3-fluoro-4-hydroxy-3-methylpiperidin-1-yl)pyrimidin-4-yl)amino)-4-isopropyl-2,7-naphthyridin-1-yl)azetidin-3-yl)-N-methylacetamide] |
